Assay results reported in patent US5646316A, “Bile acid inhibitors of metalloproteinase enzymes” (OsteoArthritis Sciences, Inc., priority 1995, dated 1997).
Like-named read-outs stand apart in the source and are kept apart here.

Key:
stromelysin = stromelysin (Homo sapiens, UniProt P08254); assay: Assay of Stromelysin Inhibition Activity (fluorogenic substrate hydrolysis); assay type: biochemical; conditions: for inhibition at 10 µM: read-out: percent inhibition of stromelysin
Experimental: (§1) Stromelysin was first activated by trypsin. This was done by preparing a reaction mixture in B-150 (B-150 consists of 150 mM NaCl, 20 mM Tris at pH 7.8 and 0.02% sodium azide) containing a final concentration of 4 μg/mL trypsin, 1.48 μg/mL of stromelysin, and 3.15 mM CaCl2. The reaction was incubated for 30 minutes at 37° C. and then quenched by adding soybean trypsin inhibitor to a final concentration of 43.6 μg/mL. ZnCl2 was added to the reaction mixture for a total concentration of 0.24 μM.
(§2) Following preparation of the solution of activated stromelysin, assay solutions were prepared for each inhibitor being tested. A control was also prepared. First, […] of activated stromelysin (about 45 μL from the solution of activated stromelysin) were aliquotted per assay tube. A 2.5 mM solution in 100% dimethyl sulfoxide (DMSO) was prepared for each inhibitor being tested and 1 μL from each inhibitor solution was added to one of the assay tubes. In addition, 1 μL of 100% DMSO was added to the control assay tube. All assay tubes were then pre-incubated for 5 minutes.
(§3) 5 μL of a previously prepared 50 μM solution of substrate in 15% DMSO were added to each assay tube. The substrate was a methoxycumarin developed by Knight et al. FEBS Lett. 296:263-66 (1992). The tubes were then incubated for 60 minutes, at which time the reaction was stopped with the addition of 750 μL of 0.1M NaAc pH 4.0 buffer.
(§4) Substrate hydrolysis was assessed by fluorescence using a slit width of 10:10, excitation at 328 nm and emission at 393 nm. The results of these assays are listed in Table I as percent inhibition at 10 μM of the bile acid provided compound tested or as the IC50.

[1] = test system: bovine cartilage explants; assay: Bovine Cartilage Explant Assay (35S-GAG release, rhIL-1α stimulated; tissue culture); assay type: cell-based; conditions: Bos taurus, read-out: percent inhibition of extracellular matrix damage, Tissue Culture
From the text: A tissue culture assay was used to measure the ability of the compounds of the present invention to slow the degradation of the extracellular matrix by metalloproteinases. This assay measured the amount of ^35 S-glycosaminoglycan (^35 S-GAG) released from labeled bovine cartilage explants.
Knee joints from a 1 to 3 week old calf were obtained immediately after sacrifice from the Abattoir and then transported on ice. The intact joints were washed well with tap water and soaked in 50% (v/v) Povidine iodine solution, obtained from Burre National, Inc., Baltimore, Md. All subsequent steps were performed in a laminar flow tissue culture hood using standard sterile technique. The joint was immobilized in a shank holder and the joint capsule was cut open to expose the articular cartilage. Cartilage explant plugs, approximately 15 mg wet weight, were removed from the flat articulating surfaces in the lower-most region of the knee joint using a sterile steel cork-borer and collected in a 250 mL roller bottle containing about 100 mL fresh Delbecco's minimum essential medium (DMEM), obtained from Gibco BRC, Life Technologies, Gaithersburg, Md., containing 4.5 g/1 (D)-glucose and (L)-glutamine, without sodium pyruvate. The fresh media also contained enough Hepes buffer and sodium bicarbonate such that the pH was about 7.4. The media was then further supplemented just before use with 100 units Penicillin, 100 μg Streptomycin, and 50 μg (L)-ascorbic acid per mL of medium.
Once collected, the explant plugs were washed four times with 50 mL fresh DMEM. The plugs were then placed in the incubator for a minimum of 1 hour to equilibrate, before proceeding to make disks from the articulating surface of each plug. A 1 mm thick disk was sliced from individual plugs from the end that was the articulating surface of the joint. The plug was held steady in the sterile template (4 mm diameter×1.5 mm deep) using sterile forceps. A scalpel blade was used to carefully slice off the disk. Only the superficial articulating surface responded well in culture.
Individual disks obtained were transferred to a tissue culture flask containing about 100 mL fresh media. The flask containing the disks was placed in an incubator at 37° C. (with 5% CO2, 95% air) and allowed to equilibrate overnight and at least one additional day before labeling. When ready to label, the old media was replaced with 50 mL fresh media containing about 500 μCi ^35 S-Sodium Sulfate. The plugs were labeled in bulk for about 48 hours. The next morning, the "hot" media was removed and replaced with fresh "cold" media. The disks were again allowed to equilibrate overnight before being used for actual experiments.
The media in which the disks were stored was changed immediately prior to performing the assay. The disks were then returned to the incubator until the test media and the two control media had been prepared. The test media consisted of a bile acid or bile acid derivative (50 μM) being tested for its ability to inhibit extracellular matrix degradation and concomitant recombinant human Interleukin rhIL-1α (5 ng/mL) in fresh DMEM solution. The control media were identical to the test media, except that the first control media lacked rhIL-1α and the second control media lacked an inhibitor, i.e. a bile acid or bile acid derivative. 250 μL of each of the test and control media were transferred to separate 96-well TC plates. Flamed forceps were used to transfer a disk from the incubator to each 96-well TC plates that had been filled with either the test media or one of the two control media.
The TC plates were then placed in the incubator and cultured for 3-4 days (initial incubation with rhIL-1α alpha takes at least 3 days to stimulate endogenous metalloproteinases). A 50 μL aliquot of media from each TC plate was saved and counted. The rest of the media was removed with a suction device.
The cartilage disks from each TC plate were also saved for counting. […]

collagenase = assay: Assay of Collagenase Inhibition Activity; assay type: biochemical; conditions: at 10 μM of compound; 45 minutes at 37° C.
Experimental: as §1, §2, §3, §4
(§5) The assay procedure for collagenase was the same as described in Example 13 for stromelysin except that the trypsin activation was performed for 45 minutes. In addition, the incubation of the assay tubes at 37° C. was only for 45 minutes, and the final enzyme concentration is 6 nm. The results of these assays are provided in Table I as percent inhibition at 10 μM of the compound tested.

gelatinase (72 (Kd)) = biological target: T1, gelatinase (72 (Kd) (Homo sapiens, UniProt P08253)); assay: Assay of Gelatinase Inhibition Activity (72 Kd gelatinase); assay type: biochemical; conditions: for inhibition at 10 µM: read-out: percent inhibition of gelatinase
T1 sequence (P08253 110-660): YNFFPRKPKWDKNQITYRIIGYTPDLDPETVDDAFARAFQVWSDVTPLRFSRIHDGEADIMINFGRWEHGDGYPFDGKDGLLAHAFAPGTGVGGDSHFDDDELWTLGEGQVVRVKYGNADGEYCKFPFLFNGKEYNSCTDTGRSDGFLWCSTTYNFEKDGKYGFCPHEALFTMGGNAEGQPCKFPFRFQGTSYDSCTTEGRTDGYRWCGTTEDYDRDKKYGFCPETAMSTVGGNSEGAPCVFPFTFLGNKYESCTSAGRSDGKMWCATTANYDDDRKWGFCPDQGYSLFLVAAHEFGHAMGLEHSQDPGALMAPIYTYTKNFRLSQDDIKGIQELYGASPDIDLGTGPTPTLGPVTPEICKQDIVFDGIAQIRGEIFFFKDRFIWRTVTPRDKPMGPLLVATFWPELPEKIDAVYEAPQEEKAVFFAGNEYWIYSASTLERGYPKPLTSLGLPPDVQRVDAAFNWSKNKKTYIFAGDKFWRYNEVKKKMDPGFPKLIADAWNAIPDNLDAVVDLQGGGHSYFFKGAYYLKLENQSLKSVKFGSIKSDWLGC
Experimental: as §1, §2, §3, §4
as §5, with “gelatinase (72 (Kd)” for “collagenase”, “60” for “45”, “was” for “was only”, “was 3” for “is 6”, “listed” for “provided”

chondrocytes = assay: Chondrocyte Cell Culture Matrix Breakdown Assay (35S release, rhIL-1α stimulated); assay type: cell-based, calf; conditions: at 50 μM; rhIL-1α 1 ng/ml; 22-24 hours
Experimental: A cell culture assay was used to measure the ability of compounds to slow the degradation of the extracellular matrix by a metalloproteinase. This assay measured the amount ^35 S released from chondrocytes grown in a media with ^35 S labeled sodium sulfate. The cell culture assay was carried out as follows:
Two or three 1 to 3 week old calf joints were obtained from an abattoir. The proximal end of the shank was at about 4-5" long to facilitate immobilization in the holder. The joint was kept cool and transported on ice. The exterior of the intact joints was washed well with a suitable anti-microbial soap, rinsed clean with warm water, rinsed in betadine and then finally rinsed with 70% ethanol. Up to this point all steps were done in a manner to ensure that the joint was kept as clean as possible. All subsequent steps were performed in a sterile field (i.e., in a Edgeguard laminar flow tissue culture hood). The joint was immobilized and the synovial fluid was aspirated with a needle and syringe. The joint was then cut open to expose the articular cartilage using a #21 scalpel. Using locking hemostats, forceps and a #15 scalpel, the cartilage was excised in full thickness pieces. Care was taken not to cut too deep because bleeding would have occurred if the subchondral bone, was penetrated. The cartilage pieces were placed into a 50 mL centrifuge tube containing 25 mL of Delbecco's phosphate buffered saline (D-PBS) supplemented with 1% antibiotic solution (penicillin, streptomycin and fungizone; GIBCO/BRL). The slices from each joint were then placed into separate 50 mL centrifuge tubes. The D-PBS was decanted and replaced with 25 mL of fresh D-PBS supplemented with antibiotics and subsequently agitated gently.
The cartilage pieces were transferred to a fresh 50 mL centrifuge tube and rinsed once more with 25 mL of D-PBS minus antibiotics. An enzymatic digestion solution containing 1 mg/mL of hyaluronidase in serum-free 1:1 DMEM/Ham's F-12 (DMEM/F12) was prepared. This solution was filter sterilized with […] Milex--GV filter and kept on ice until ready to use. The cartilage pieces were digested with approximately 5 mL of hyaluronidase solution per joint for 2×15 minutes at 37° C. in the 50 mL centrifuge tube with gentle agitation at the 15 minute mark. This procedure removed residual hyaluronic acid from the surface of the chips. The enzymatic digestion solution was then aspirated and the cartilage pieces were rinsed with 25 mL of D-PBS.
A second enzymatic digestion solution containing 2.5 mg trypsin and 2 mg collagenase P per mL serum-free DMEM/F12 was prepared. This solution was also filter sterilized with a […] Millex--GV filter and kept on ice until ready to use. The cartilage pieces were digested with approximately 5 mL of trypsin: collagenase solution per joint for 2×15 minutes at 37° C. in the 50 mL centrifuge tube with gentle agitation at the 15 minute mark. This procedure removed the synovial fibroblasts and any adherent connective tissue from the surface of the chips. The enzymatic digestion solution was then carefully removed and saved and the cartilage pieces were rinsed with 25 mL of D-PBS.
A third enzymatic solution containing 2 mgs of collagenase P (BMB) per mL serum-free DMEM/F12 was prepared. This solution was filter sterilized with a […] Millex--GV filter and kept on ice until ready to use. The pre-digested cartilage pieces were finally digested with approximately 20 mL of enzymatic digestion solution per joint for 5-6 hours at 37° C. in a Bellco stirring digestion flask, at which point the cartilage was fully digested away.
The enzymes in the synovial fibroblast and chondrocyte digest were neutralized by addition of an equal volume of DMEM/F12 supplemented with 5% fetal bovine serum. Fibroblasts were plated in DMEM at a cellular density of 6.6×10^3 cells per cm^2. […]

[2] = at 10 μM of compound, 60 minutes at 37° C.

Sequence of stromelysin (P08254 100-477): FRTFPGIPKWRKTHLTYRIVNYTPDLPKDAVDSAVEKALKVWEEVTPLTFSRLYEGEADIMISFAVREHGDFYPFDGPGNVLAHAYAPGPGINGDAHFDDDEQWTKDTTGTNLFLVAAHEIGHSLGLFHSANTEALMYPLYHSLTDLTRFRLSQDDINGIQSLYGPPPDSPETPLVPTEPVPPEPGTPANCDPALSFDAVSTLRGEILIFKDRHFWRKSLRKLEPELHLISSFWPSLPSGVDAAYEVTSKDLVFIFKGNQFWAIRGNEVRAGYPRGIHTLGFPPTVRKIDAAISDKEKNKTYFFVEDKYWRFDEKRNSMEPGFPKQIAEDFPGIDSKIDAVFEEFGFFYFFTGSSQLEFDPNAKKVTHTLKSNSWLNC

SMILES | inhibition at 50 µM [1] [%] | percent inhibition of collagenase (collagenase) [%] | inhibition at 10 µM (gelatinase (72 (Kd))) [%] | inhibition at 10 µM (stromelysin; at 10 μM of compound) [%] | inhibition at 10 µM (gelatinase (72 (Kd)); [2]) [%] | also measured
C[C@H](CCC(=O)O)[C@H]1CC[C@H]2[C@@H]3[C@H](O)C[C@@H]4C[C@H](O)CC[C@]4(C)[C@H]3C[C@H](O)[C@]12C [Compound 7, Cholic acid, reference compound] | -90 | 21 | 4 | – | – | inhibition at 10 µM (stromelysin): 24%
C[C@H](CCC(=O)NOCc1ccccc1)[C@H]1CC[C@H]2[C@@H]3CC[C@@H]4C[C@H](O)CC[C@]4(C)[C@H]3CC[C@]12C [Compound 11, Lithocholyl-O-Benzylhydroxamate] | – | 13 | – | 25 | 21 | –
C[C@H](CCC(=O)N[C@@H](Cc1c[nH]c2ccccc12)C(=O)O)[C@H]1CC[C@H]2[C@@H]3CC[C@@H]4C[C@H](O)CC[C@]4(C)[C@H]3CC[C@]12C [Compound 17, Lithocholyl-(L)-Tryptophane] | 8 | – | 5 | – | – | –
C[C@H](CCC(=O)N[C@@H](Cc1c[nH]c2ccccc12)C(=O)NO)[C@H]1CC[C@H]2[C@@H]3CC[C@@H]4C[C@H](O)CC[C@]4(C)[C@H]3CC[C@]12C [Compound 18, Lithocholyl-(L)-Tryptophane Hydroxamic Acid] | – | 35 | – | 90 | 41 | inhibition at 50 µM ([1]; at 50 μM, rhIL-1α 5 ng/mL, 3-4 days): 3%
CC(C)C(CC(=O)NO)NC(=O)CC[C@@H](C)[C@H]1CC[C@H]2[C@@H]3CC[C@@H]4C[C@H](O)CC[C@]4(C)[C@H]3CC[C@]12C (stereo partly drawn) [Compound 21, Lithocholyl-β-Leucine Hydroxamic Acid] | – | – | – | – | – | IC50 (stromelysin; 60 minutes incubation): 3 µM; percent inhibition, Cell Culture (chondrocytes): 88%; IC50 (gelatinase (72 (Kd)); 60 minutes at 37° C.): 7 µM
